Experimental data taken from article PMC6985712 (Antimicrobial Agents and Chemotherapy, 2020).
Read-outs that look alike come from different tables or passages of the source.

How the values were obtained:
KPC-2 [1] = target: T1, KPC-2 (Klebsiella pneumoniae, UniProt Q9F663); assay: k2/K inactivation constant, reporter substrate method; format: biochemical
Experimental: Inactivation kinetic parameters were determined by using the reporter substrate method for the slow tight-binding inhibitor kinetic scheme ([38]). E + I ↔K EI ↔k−2k2 EI*
(§1) Protein was quickly mixed with 100 μM nitrocefin and various concentrations of BLI in reaction buffer, and the absorbance at 490 nm was measured immediately every 2 s for 180 s on a SpectraMax plate reader (Molecular Devices, San Jose, CA) at 37°C. The resulting progression curves of OD490 versus time at various BLI concentrations were imported into Prism software (GraphPad, San Diego, CA), and pseudo first-order rate constants kobs were calculated by using the following equation: P = Vs ⋅ (1 – e^–^k^obs ⋅ ^t)/kobs, where Vs is the enzyme NCF cleavage rate in the absence of BLI.

ADC-7, KPC-2, and SHV-1 = test system: ADC-7, KPC-2, and SHV-1; set-up: method as in PMID 26729491, PMID 26729496; conditions: cited from earlier work
KPC-2 [2] = target: T1, KPC-2; assay: Stability of inhibitor after incubation with KPC-2, LC/MS; format: biochemical; conditions: for degradation/hydrolysis of inhibitor by KPC-2: 1 µM inhibitor and 1 µM KPC-2, 37 °C, reaction buffer, 18 hours, LC/MS
OXA-48 = target: T2, OXA-48 (Klebsiella pneumoniae, UniProt Q6XEC0); assay: Kiapp determination with nitrocefin (method of Waley); format: biochemical; conditions: recombinant His-tagged enzyme; 10 min incubation at 37°C; 50 μM NCF
T2 construct: His tag; purchased Emerald Biostructures (Bainbridge Island, WA)
Experimental: (§2) The protein was mixed with various concentrations of inhibitors in 50 mM sodium phosphate (pH 7.0) and 0.1 mg/ml of bovine serum albumin buffer (reaction buffer), followed by incubation for 10 min at 37°C. Next, 50 μM nitrocefin (NCF; 10 μM for SHV-12 and 25 μM for BKC-1) was added, and substrate cleavage profiles were recorded at 490 nm every 10 s for 10 min. […] Kiapp values were calculated by method of Waley ([24]).

CTX-M-15 [3] = target: T3, CTX-M-15 (Escherichia coli, UniProt Q9EXV5); assay: as above; format: biochemical; conditions: recombinant His-tagged enzyme; 10 min incubation at 37°C; 50 μM NCF
T3 construct: His tag; purchased Emerald Biostructures (Bainbridge Island, WA)
Experimental: as §2

SHV-12 [4] = target: T4, SHV-12 (Klebsiella pneumoniae, UniProt P0AD64, E235K/G234S/L31Q); assay: as above; format: biochemical; conditions: recombinant His-tagged enzyme; 10 min incubation at 37°C; 10 μM NCF
T4 construct: His tag; purchased Emerald Biostructures (Bainbridge Island, WA)
Experimental: as §2

CTX-M-14 = target: T5, CTX-M-14 (Escherichia coli, UniProt Q9L5C7); assay: as above; format: biochemical; conditions: recombinant His-tagged enzyme; 10 min incubation at 37°C; 50 μM NCF
T5 construct: His tag; purchased Emerald Biostructures (Bainbridge Island, WA)
Experimental: as §2

KPC-3 [5] = target: T6, KPC-3 (Klebsiella pneumoniae, UniProt Q9F663, H272Y); assay: as above; format: biochemical; conditions: recombinant His-tagged enzyme; 10 min incubation at 37°C; 50 μM NCF
Experimental: as §2

AmpC [6] = target: T7, AmpC (Enterobacter cloacae, UniProt P05364); assay: as above; format: biochemical; conditions: recombinant His-tagged enzyme; 10 min incubation at 37°C; 50 μM NCF
T7 construct: His tag; purchased Emerald Biostructures (Bainbridge Island, WA)
Experimental: as §2

KPC-2 [7] = target: T1, KPC-2; assay: as above; format: biochemical; conditions: recombinant His-tagged enzyme; 10 min incubation at 37°C; 50 μM NCF
Experimental: as §2

VIM-1 = target: T8, VIM-1 (Pseudomonas aeruginosa, UniProt A0A0F7KYQ8); assay: as above; format: biochemical
T8 construct: His tag; purchased Emerald Biostructures (Bainbridge Island, WA)
Experimental: as §2

FRI-1 [8] = target: T9, FRI-1 (Enterobacter cloacae, UniProt A0A0M5L4T8); assay: as above; format: biochemical; conditions: recombinant His-tagged enzyme; 10 min incubation at 37°C; 50 μM NCF
Experimental: as §2

OXA-23 = OXA-23 (Acinetobacter baumannii, UniProt Q9L4P2); assay: as above; format: biochemical; conditions: recombinant His-tagged enzyme; 10 min incubation at 37°C; 50 μM NCF
Experimental: as §2

BKC-1 [9] = target: T10, BKC-1 (Klebsiella pneumoniae, UniProt A0A0F6QEY8); assay: as above; format: biochemical; conditions: recombinant His-tagged enzyme; 10 min incubation at 37°C; 25 μM NCF
Experimental: as §2

NDM-1 = target: T11, NDM-1 (Klebsiella pneumoniae, UniProt C7C422); assay: as above; format: biochemical
T11 construct: His tag; purchased Emerald Biostructures (Bainbridge Island, WA)
Experimental: as §2

CTX-M-15 [10] = target: T3, CTX-M-15; assay: koff of enzyme activity recovery, jump dilution method; format: biochemical; conditions: calculated using k2/K and koff
Experimental: (§3) After appropriate dilution, 100 μM NCF was added to the reaction mixture, and absorbance at 490 nm was recorded every 10 s using a plate reader. The reaction without the addition of BLI was also recorded and used to calculate uninhibited enzyme velocity Vs.
(§4) Purified enzyme at 1 μM in reaction buffer was mixed with BLIs at an 8-fold higher concentration than its stoichiometry ratio (determined in preliminary stoichiometry experiments). After 30 min incubation at 37°C, the reaction mixture was diluted from 100- to 30,000-fold depending on the enzyme in reaction buffer, and 100 μl of diluted enzyme was mixed with 100 μl of 400 μM NCF in reaction buffer. The absorbance at 490 nm was recorded every minute during 4 h at 37°C.

KPC-3 [11] = target: T6, KPC-3; assay: as above; format: biochemical
Experimental: as §3, §4

AmpC [12] = target: T7, AmpC; assay: as above; format: biochemical; conditions: calculated using k2/K and koff
Experimental: as §3, §4

KPC-2 [13] = target: T1, KPC-2; assay: as above; format: biochemical; conditions: calculated using k2/K and koff
Experimental: as §3, §4

FRI-1 [14] = target: T9, FRI-1; assay: as above; format: biochemical; conditions: calculated using k2/K and koff
Experimental: as §3, §4

BKC-1 [15] = target: T10, BKC-1; assay: as above; format: biochemical; conditions: calculated using k2/K and koff
Experimental: as §3, §4

SME-2 [16] = target: T12, SME-2 (Serratia marcescens, UniProt P52682, V207Q); assay: as above; format: biochemical, S. marcescens
Experimental: as §3, §4

SME-2 [17] = target: T12, SME-2; assay: Kiapp determination with nitrocefin (method of Waley); format: biochemical, S. marcescens; conditions: recombinant His-tagged enzyme; 10 min incubation at 37°C; 50 μM NCF
Experimental: as §2

SHV-12 [18] = target: T4, SHV-12; assay: Inactivation kinetic profile, reporter substrate method; format: biochemical; conditions: precluded k2/K calculation
Experimental: as §1

TEM-43 = TEM-43 (Escherichia coli, UniProt P62593, E102K/M180T/R162H); assay: as above; format: biochemical; conditions: precluded k2/K calculation
Experimental: as §1

[19] = 1.2 nM KPC-2, 100 μM NCF reporter substrate
[20] = recombinant His-tagged enzyme, 10 min incubation at 37°C, 50 μM NCF

## O=Cc1ccccc1B(O)O [2-formylphenylboronic acid]
KPC-2 [1]; [19]
  KPC-2 inactivation kinetic profile: linear KPC-2 inactivation profile

## O=C(Cc1cccs1)N[C@@H](Cn1cc(C(=O)O)nn1)B(O)O [S02030]
ADC-7, KPC-2, and SHV-1
  potency (in words): nanomolar potency

## Cc1cccc(B(O)O)c1 [m-tolylboronic acid]
KPC-2 [1]
  KPC-2 inactivation kinetic profile: linear KPC-2 inactivation profile

## C[C@]1(Cn2ccnn2)[C@H](C(=O)O)N2C(=O)C[C@H]2S1(=O)=O [tazobactam, reference compound]
KPC-2 [1]; [19]
  KPC-2 inactivation kinetic profile: progressive enzyme activity inactivation
KPC-2 [2]; same conditions, in 1 hour (data not shown)
  degradation of inhibitor by KPC-2: completely degraded

## O=C(O)C[C@@H]1CC[C@H](NC(=O)Cc2cccs2)B(O)O1 [vaborbactam]
OXA-48
  Ki: 14000 ± 5000 nM
CTX-M-15 [3]
  Ki: 30 ± 4 nM
SHV-12 [4]
  Ki: 21 ± 4 nM
CTX-M-14
  Ki: 33 ± 13 nM
KPC-3 [5]
  Ki: 50 ± 16 nM
AmpC [6]
  Ki: 35 ± 15 nM
KPC-2 [7]
  Ki: 56 ± 15 nM
VIM-1; class B metalloenzyme
  inhibition of enzyme (in words): No inhibition
VIM-1; [20]
  Ki: > 160000 nM
FRI-1 [8]
  Ki: 170 ± 60 nM
OXA-23
  Ki: 66000 ± 11000 nM
BKC-1 [9]
  Ki: 18 ± 2 nM
NDM-1; class B metalloenzyme
  inhibition of enzyme (in words): No inhibition
NDM-1; [20]
  Ki: > 160000 nM
CTX-M-15 [10]
  Kd: 40 nM
KPC-3 [11]
  Kd: 4.4 nM
AmpC [12]
  Kd: 220 nM
KPC-2 [13]
  Kd: 7.8 nM
FRI-1 [14]
  Kd: 509 nM
BKC-1 [15]
  Kd: 33 nM
SME-2 [16]
  Kd: 47 nM
SME-2 [17]
  Ki: 42 ± 5 nM
KPC-2 [1]; [19]
  KPC-2 inactivation kinetic profile: slow onset of inhibition and nonlinear reaction profiles
SHV-12 [18]
  inactivation kinetic profile: linear inactivation profiles
TEM-43
  inactivation kinetic profile: linear inactivation profiles
KPC-2 [2]
  degradation/hydrolysis of inhibitor by KPC-2: no degradation
KPC-2 [2]; listed as Vaborbactam
  degradation/hydrolysis of inhibitor by KPC-2: not hydrolyzed
